Reference: US7931904B2, “Modulation of MUC1 activity” (Dana Farber Cancer Institute, Inc., priority 2005, dated 2011)

Columns and labels:
[1] = system: HCT116/vector cells; assay: ChIP with anti-p53 antibody, p21 gene p53RE2; type: cell-based, human; conditions: 50 μM, 8 h
Procedure: (§1) Chromatin immunoprecipitation (ChIP) and Repeat ChIP (Re-ChIP) assays. ChIP assays were performed as previously described [Shang et al. (2000) Cell 103:843-852] using anti-MUC1 C-ter antibody, anti-p53 antibody (Ab-6; Oncogene Research Products), anti-CBP antibody (C-1; Santa Cruz Biotechnology), anti-HDAC1 antibody (Upstate Biotechnology Inc., Waltham, Mass.), anti-Ac-H4 (Upstate Biotechnology Inc.), anti-TBP antibody (58C9; Santa Cruz Biotechnology), anti-TFIIB antibody (IIB8; Santa Cruz Biotechnology), or anti-TAFII250 antibody (6B3; Santa Cruz Biotechnology). For PCR, 2 μl from a 50 μl DNA extraction were used with 30-38 cycles of amplification. The primers for the p21 gene promoter p53-responsive elements (p53RE1 and p53RE2) have been previously described [Liu et al. (2003) J. Biol. Chem. 277:17557-17565]. The primers for the p21 gene control region (CR) were (forward: 5′-[…]-3′ (SEQ ID NO:14); reverse 5′-[…]-3′ (SEQ ID NO:15)) and the p21 gene PP were (forward: 5′-[…]-3′ (SEQ ID NO:16); reverse: 5′-[…]-3′ (SEQ ID NO:17)). Primers used for the Bax gene promoter p53RE were (forward: 5′-[…]-3′ (SEQ ID NO:18); reverse: 5′-[…]-3′ (SEQ ID NO:19)), Bax gene control region (CR) were (forward: 5′-[…]-3′ (SEQ ID NO:20); reverse: 5′-[…]-3′ (SEQ ID NO:21)) and the Bax gene PP were (forward: 5′-[…]-3′ (SEQ ID NO:22); reverse: 5′-[…]-3′ (SEQ ID NO:23)).

[2] = system: ZR-75-1 cells; assay: ChIP with anti-MUC1 C-ter antibody, p21 gene p53RE2; type: cell-based, human; conditions: 50 μM, kinetic analysis
Procedure: as §1

[3] = system: HCT116/MUC1 cells; assay: as above; type: cell-based, human; conditions: 50 μM, kinetic analysis
Procedure: as §1

[4] = system: ZR-75-1 cells; assay: ChIP with anti-MUC1 C-ter antibody, Bax gene PP; type: cell-based, human; conditions: 50 μM, time course
Procedure: as §1

[5] = system: HCT116/MUC1 cells; assay: ChIP with anti-MUC1 C-ter antibody, Bax gene PP; type: cell-based, human; conditions: 50 μM, time course
Procedure: as §1

[6] = system: ZR-75-1 cells; assay: Colony formation assay; type: cell-based, human; conditions: ZR-75-1/vector vs ZR-75-1/MUC1siRNA cells, 12-48 h treatment, 8 d culture
Procedure: (§2) Colony formation assays. Aliquots containing 500 cells were plated into individual wells of 6-well culture plates containing 2 ml/well complete medium and incubated for 18-24 h at 37° C. The cells were treated with CDDP or etoposide for 12-48 h, washed and incubated for 8 d. Resulting colonies were stained with crystal violet and counted manually.

[7] = system: HCT116/MUC1 as compared to HCT116/vector cells; assay: Colony formation assay; type: cell-based, human; conditions: 12-48 h treatment, 8 d culture
Procedure: as §2

[8] = system: HCT116/vector cells; assay: Flow cytometry of cell cycle (DNA content); type: cell-based, human; conditions: 48 h
Procedure: (§3) Flow cytometry. Cells were fixed with 80% ice-cold ethanol, incubated in phosphate buffered saline (PBS) containing 30 μg/ml RNase (Roche Applied Science) for 60 min at 37° C. and then stained with propidium iodide (Sigma) for 30 min at room temperature in the dark. DNA content was analyzed by flow cytometry (Coulter EPICS XL-MCL; Miami, Fla.).

[9] = system: HCT116/MUC1 cells; assay: Flow cytometry of cell cycle (DNA content); type: cell-based, human; conditions: 48 h
Procedure: as §3

[10] = system: ZR-75-1 cells; assay: anti-p53 immunoprecipitation and anti-MUC1 C-ter immunoblot; type: cell-based, human; conditions: 50 or 100 μM, 24 h
Procedure: (§4) Immunoblotting and immunoprecipitation. Cell lysates were prepared from subconfluent cells as previously described [Wei et al. (2003) J. Biol. Chem. 278:29288-29297]. Immunoblot analysis was performed with anti-p53 antibody (Ab-2, Ab-6; Oncogene Research Products, San Diego, Calif.), anti-MUC1 N-ter antibody [the DF3 monoclonal antibody that binds to the N-terminal segment of human MUC1; Kufe et al. (1984) Hybridoma 3:223-232], anti-MUC1 C-ter antibody (Ab-5 that binds to the C-terminal segment of human MUC1; Neomarkers, Freemont, Calif.), anti-β-actin antibody (Sigma), anti-Myc antibody (Ab-1; Oncogene Research Products), anti-Bax antibody antibody (Santa Cruz Biotechnology; Santa Cruz, Calif.) and anti-p21 (Santa Cruz Biotechnology). Lysates were subjected to immunoprecipitation with anti-p53 or anti-Myc antibody and the immune complexes were analyzed by immunoblotting.

[11] = system: HCT116/MUC1 cells; assay: as above; type: cell-based, human; conditions: 50 or 100 μM, 24 h
Procedure: as §4

[12] = target: p53 (Homo sapiens, UniProt P04637, R273H); assay: Co-immunoprecipitation of Myc-MUC1-CD variants with p53 in transfected U2OS cells; type: cell-based; conditions: transiently transfected U2OS cells
Procedure: as §4
Plasmid construction and transfection. […] Transfections were performed in 60 mm tissue culture dishes using Fugene®-6 (Roche Applied Science, Indianapolis, Ind.) or, for the luciferase assays, in 24 well tissue culture plates using the calcium phosphate method (Invitrogen, Carlsbad, Calif.). […]

[13] = target: T1, p53 (Homo sapiens, UniProt P04637); assay: GST pull-down of 35S-labeled p53 by GST-MUC1-CD variants; type: binding; conditions: GST fusion proteins, 90 min at 4° C.
T1 construct: made in house; host or cells: cell-free TNT in vitro transcription/translation reaction (Promega)
Source text: GST pull-down assays. […] After washing, the adsorbed proteins were resolved by SDS-PAGE and analyzed by autoradiography or Coomassie blue staining.

| Compound | p53 occupancy of the p21 gene p53RE2 [1] | MUC1 occupancy of p21 gene p53RE2 [2] | MUC1 occupancy of p21 gene p53RE2 [3] | MUC1 occupancy of the Bax gene PP [4] | MUC1 occupancy of the Bax gene PP [5] | clonogenic survival following drug treatment [6] | clonogenic survival of drug-treated cells [7] | cell cycle progression [8] | cell cycle progression [9] | binding of endogenous MUC1 and p53 [10] | association of p53 and MUC1 [11] | complex formation with p53 in cells [12] | binding to 35S-labeled p53 in vitro [13] |
| --- | --- | --- | --- | --- | --- | --- | --- | --- | --- | --- | --- | --- | --- |
| N.N.[Cl][Pt][Cl] [cisplatin] | increased | increases | increases | increased through 4-6 h | increased through 4-6 h | increased by MUC1 expression | higher | G1 arrest of cell cycle progression | G1 arrest of cell cycle progression | Increased binding of endogenous MUC1 and p53 | increase in the association of p53 and MUC1 |  |  |
| COc1cc([C@@H]2c3cc4c(cc3[C@@H](O[C@@H]3O[C@@H]5CO[C@@H](C)O[C@H]5[C@H](O)[C@H]3O)[C@H]3COC(=O)[C@H]23)OCO4)cc(OC)c1O [etoposide] | increased | increases | increases | increased through 4-6 h | increased through 4-6 h | increased by MUC1 expression | higher | G1 arrest of cell cycle progression | G1 arrest of cell cycle progression | Increased binding of endogenous MUC1 and p53 | increase in the association of p53 and MUC1 |  |  |
| MUC1-CD(1-51): deletion variant of MUC1-CD, amino acids 1-51 (SEQ ID NO:5) (CQCRRKNYGQLDIFPARDAYHPMSEYPTYHTHGRYVPPSSTNRSPYEKVSE; listed as Homo sapiens) |  |  |  |  |  |  |  |  |  |  |  | in vivo binding of p53 | sufficient to form a complex with p53 in vitro |
